Measured values from US7598028B2, “Compositions and methods for detecting and treating prostate disorders” (The Regents of the University of Michigan, priority 2006, dated 2009).

Legend:
Format in all cases: cell-based, human
[1] = tested on: LNCaP prostate epithelial cells; assay: Proliferation assay (cell counts), LNCaP
Procedure: (§1) Proliferation assays. Cellular proliferation was assessed after plating cells at 50 000 cell/well in triplicate in six-well plates and counting cells after 24 and 96 h of incubation in complete media, serum-free media or serum-free prostate stromal fibroblast conditioned media, as described previously (Macoska J A, et al., (2004) Cancer Genet. Cytogenet. 154, 36-43; incorporated herein by reference in its entirety). Averages and standard deviations of cell number were calculated for each time point under each media condition. To assess the effects of exogenous CXCL12 on cellular proliferation, recombinant human SDF1 alpha/CXCL12 (R & D Systems, 350-NS) was added at the desired concentration in 1 mL SF HIE (or 1 mL SF HIE alone for control) to each well. The cells were counted at 24 and 96 h growth and re-fed at 48 and 72 h growth. Cell counts were normalized to 50 000 cells at 24 h to account for any plating discrepancies.
(§2) Proliferation Assays. Cellular proliferation was assessed after plating cells at 50,000 cell/well in triplicate in six well plates and counting cells after 24 and 96 hours of incubation as described previously (see, e.g., Macoska J A, et al., 2004 Cancer Genet. Cytogenet. 154, 36-43; incorporated herein by reference in its entirety). To assess the effects of exogenous CXCL12 on cellular proliferation, recombinant human SDF1 alpha/CXCL12 (R&D Systems, 350-NS) was added at the desired concentration in 1 ml SF HIE (or 1 ml SF HIE alone for control) to each well. The cells were re-fed at 48 and 72 hours growth and counted at 24 and 96 hours growth. Cell counts were normalized to 50,000 cells at 24 hours to account for any plating discrepancies. Averages and standard deviations of cell number were calculated for each time point under each media condition. Experiments utilizing U0126 were performed as above, except that cells were treated after plating for 2 hours with either DMSO (vehicle) or 5 uM U0126 before addition of CXCL12. Cells were maintained in media containing DMSO or U0126 for the entirety of the experiment. For the antibody blockade experiments, cells were plated at 10,000 cells per well in triplicate in 24 well dishes and pre-incubated with mouse IgG2aκ (BD Pharmingen 555571) or mouse anti-CXCR4 (BD Pharmingen 555971) at 1 ug/ml for 1 hour prior to CXCL12 addition. Cells were maintained in media containing appropriate antibodies for the entirety of the experiment, and cells were counted at 24 and 96 hours as above.
(§3) Proliferation Assays. Cellular proliferation was assessed after plating cells at 50,000 cell/well in triplicate in six well plates and counting cells after 24 and 96 hours of incubation as described previously (see, e.g., Begley L, et al., Genes Chromosomes Cancer. 2006 February; 45(2): 136-46; herein incorporated by reference in its entirety). To assess the effects of exogenous CXCL5 on cellular proliferation, recombinant human CXCL5 (R&D Systems, 254-X) was added at the desired concentration in 2 ml SF media (or 2 ml SF media alone for control) to each well. The cells were re-fed at 24 hours growth and counted at 24 and 96 hours growth. Cell counts were normalized to 50,000 cells at 24 hours to account for any plating discrepancies. Averages and standard deviations of cell number were calculated for each time point under each media condition. For the antibody blockade experiments, 10,000 cells per well were plated in triplicate in 24 well dishes and preincubated with mouse anti-human CXCR2 (Biosource AHR1532X) or mouse antihuman CXCR4 (BD Pharmingen 555971) at 1 ug/ml for 1 hour prior to CXCL5 addition. Cells were maintained in media containing appropriate antibodies for the entirety of the experiment and were counted at 24 and 96 hours as above.

[2] = tested on: N15C6 prostate epithelial cells; assay: Proliferation assay (cell counts), N15C6
Procedure: as §1, §2, §3

p65 subunit of NFkappaB = assay: Western blot, p65 phosphorylation in LNCaP cells
Procedure: Western Blot and Protein Analysis. Cells were lysed, proteins resolved by electrophoresis, and electroblotting was carried out as described previously except that 20 ug protein was electrophoresed per gel lane for N15C6 cells and 100 ug protein for LNCaP cells (see, e.g., Begley L, et al., Aging Cell. 2005 December; 4(6):291-8; Begley L A, et al., J Biol. Chem. 2007 Sep. 14; 282(37):26767-74; each herein incorporated by reference in their entireties). Proteins were detected using antibodies against phospho-ERK½ (Cell Signaling #9101), total ERK½ (Cell Signaling, #9102), phospho-p65, (Rockland #100-401-264), total p65 (Rockland #100-4165), STAT3 (9139), phospho-STAT3 (9138), beta-actin (Santa Cruz #sc-1615), or tubulin (Upstate, #DM1A) in conjunction with an ECL detection system. Secondary antibodies included goat anti-rabbit (Cell Signaling, #7074) and goat anti-mouse (Santa Cruz, #SC-2005), and both were used at a 1:5000 concentration. Immunoblots shown are representative of triplicate experiments. Densitometric quantitation of immunoblot films was accomplished by scanning the original films and converting the .tiff files to grayscale. Images were inverted, and mean band intensities were measured using ImageJ (www, followed by, .nih.gov). The mean intensity of adjacent background was also measured for each band and subtracted from band intensity.

[3] = tested on: BPH-1 prostate epithelial cells; assay: Proliferation assay, BPH-1; details: 0.001-1 nM CXCL5, p<0.05
Procedure: as §3

p65 subunit of NF-kappaB = assay: Western blot, p65 phosphorylation in N15C6 cells; details: 10 pM, 100 pM or 1 nM CXCL5 tested
Procedure: Western blot analysis Cells were lysed, proteins resolved by electrophoresis and electroblotting was carried out as described previously (Chaib H, et al., (2001) Cancer Res. 61, 2390-2394; incorporated herein by reference in its entirety). Proteins were detected using antibodies against phospho-ERK½ (Cell Signaling no. 9101), total ERK½ (Cell Signaling, no. 9102), CXCR4 (Abcam no. ab2074), CXCR7 (Abcam #Ab12870, Abcam #Ab12871, Abcam #38089), phospho-p65 (Rockland no. 100-401-264), total p65 (Rockland no. 100-4165), or beta-actin (Santa Cruz no. sc-1615), in conjunction with an ECL detection system.
Western Blot and Protein Analysis. […] Proteins were detected using antibodies against phospho-ERK½ (Cell Signaling #9101), total ERK½ (Cell Signaling, #9102), phospho-p65, (Rockland #100-401-264), total p65 (Rockland #100-4165), STAT3 (9139), phospho-STAT3 (9138), beta-actin (Santa Cruz #sc-1615), or tubulin (Upstate, #DM1A) in conjunction with an ECL detection system. […] Densitometric quantitation of immunoblot films was accomplished by scanning the original films and converting the .tiff files to grayscale. Images were inverted, and mean band intensities were measured using ImageJ (www, followed by, .nih.gov). The mean intensity of adjacent background was also measured for each band and subtracted from band intensity.

[4] = add back of exogenous chemokine, 96 hours

Molecule: N#CC(=C(/N)Sc1ccccc1N)/C(C#N)=C(\N)Sc1ccccc1N [U0126]
- effect on proliferative response to CXCL12 ([1]; co-treatment with U0126 (5 uM), 50 pM CXCL12): not affected
- effect of U0126 on the effect of CXCL5 (anticipated) ([1]; stated as anticipated): will inhibit
- effect on proliferative response to CXCL12 ([2]; 1.0 uM U0126 with 1 pM, 10 pM or 100 pM CXCL12, compared to DMSO): nearly ablated
- effect on proliferative response to CXCL12 ([2]; 5.0 uM U0126 in 0.05% DMSO): nearly ablated
- effect of U0126 on the effect of CXCL5 (anticipated) ([2]; stated as anticipated): will inhibit
- cellular proliferation in the absence of CXCL12 ([2]; treatment with U0126): diminished

Molecule: CXCL5: recombinant human CXCL5 (R&D Systems, 254-X), CXC-type chemokine
- proliferation versus SF media alone ([1]; 0.001-1 nM CXCL5, p<0.05): significantly higher
- effect of CXCL5 on proliferation ([1]; CXCL5 1-10 pM): did not stimulate
- cell proliferation compared to serum-free (SF HIE) media alone [1, 4]: stimulate
- phosphorylation of the p65 subunit of NFkappaB (p65 subunit of NFkappaB; 10 pM or 100 pM CXCL5): rapidly and transiently phosphorylated
- activation of NFkappaB (p65 subunit of NFkappaB; nanomolar levels of CXCL5): not evident
- CXCL5 concentrations that inhibited proliferation [2]: > 100 µM
- CXCL5 concentrations that stimulated proliferation [2]: 1 to 10 pM
- proliferation versus SF media alone ([2]; 0.001-1 nM CXCL5, p<0.05): significantly higher
- proliferation in response to CXCL5 compared with CXCL12 ([2]; FIG. 8): equivalently
- cell proliferation compared to serum-free (SF HIE) media alone [2, 4]: stimulate
- proliferation versus SF media alone [3]: significantly higher
- NFkappaB subunit activation (p65 subunit of NF-kappaB): evident only after treatment with 1 nM CXCL5
